From patent US8778627B2, “Enzyme substrate comprising a functional dye and associated technology and methods” (Biotium, Inc., priority 2006, dated 2014)
Values belong to the molecule of their own block, whether it stands above or below them.

Assays:
calf thymus dsDNA = test: DNA titration of nucleic acid dye-based substrates and controls; format: binding; details: 1 μM in pH 7.4 TE buffer, 30-minute incubation at room temperature, excitation 485 nm, emission 530 nm
Method: In this example, nucleic acid dye-based caspase-3 substrates, Substrate No. 19 and Substrate No. 20, and respective control compounds, Compound No. 7 and Compound No. 24, were titrated with varying amounts of calf thymus dsDNA and the fluorescence signals of the solutions were recorded. Briefly, the substrates and the respective controls were prepared as generally described above in relation to Example 51. Multiple wells of a 96-well plate were loaded with the substrate (100 μL, 1 μM) or the respective control (100 μL, 1 μM). Each well was then titrated with 5 μL of one of the seven DNA stock solutions of 2.1, 4.1, 8.2, 16.4, 32.8 65.6 and 127.5 μg/mL concentration, respectively, in pH 7.4 TE buffer. After a 30-minute incubation at room temperature, the fluorescence reading of each well was recorded with a SpectraMax Germini XS fluorescence microplate reader (Molecular Devices Corp., Sunnyvale, Calif.), with the excitation wavelength and the emission collection wavelength set at 485 nm and 530 nm, respectively.
DNA titrations of Compound No. 21, a nucleic acid dye-based HDAC substrate, and Compound No. 23, a control associated with Compound No. 21, were titrated with varying amounts of calf thymus dsDNA in the manner generally described above in relation to Example 52.

calf thymus DNA = test: Measurement of fluorescence spectra in the presence of DNA; format: binding; details: 1 μM in pH 7.4 TE buffer, excess calf thymus DNA, excitation 600 nm, FIG. 1
Method: Stock solutions of nucleic acid dye-based substrates and respective control compounds were prepared by dissolving each compound in DMSO at 1 mg/mL concentration. The stock solutions were diluted into a pH 7.4 buffer (TE buffer) comprising Tris (10 mM), EDTA (1 mM) and NaCl (50 mM) to give a final concentration of 1 μM. Dye solutions containing an excess amount of DNA were prepared by adding a sufficient amount of calf thymus DNA calculated to yield a ratio of greater to or equal to 50 DNA base pairs per dye molecule. A fluorescence spectrum for each dye was recorded before and after the addition of DNA using a Jasco F-750 fluorescence spectrophotometer, with the fluorescence excitation wavelength set at λA-25 nm or 600 nm, where λA is the absorption maximum for each dye in the presence or the absence of DNA, and emission collection wavelength set at 660 nm.

[1] = target: T1, caspase-3 activity in Jurkat cells (Homo sapiens, UniProt P42574); test: Detection of caspase-3 activity in live cells by flow cytometry; format: cell-based; details: for caspase-3-positive cell identification: Jurkat cells, substrate 10 μM for 15 minutes, FL1 channel
T1 construct: A flask of Jurkat cells were induced with staurosporine (1 μM) for apoptosis; endogenous in cells; host or cells: Jurkat cells induced with staurosporine
T1 sequence (P42574 29-175 limits assumed): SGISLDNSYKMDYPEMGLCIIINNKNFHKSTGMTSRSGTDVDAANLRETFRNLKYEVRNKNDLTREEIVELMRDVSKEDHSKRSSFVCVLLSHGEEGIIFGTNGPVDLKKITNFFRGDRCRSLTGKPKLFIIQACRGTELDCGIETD
T1 sequence (P42574 176-277 limits assumed): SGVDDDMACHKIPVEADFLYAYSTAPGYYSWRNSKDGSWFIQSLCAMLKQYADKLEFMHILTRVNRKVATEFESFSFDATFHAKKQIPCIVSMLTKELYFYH
Method: In this example, Jurkat cells were used to test whether Substrate No. 19 may be used to detect caspase-3 activity, or a lack thereof, within live cells by generating a nucleic acid dye that forms fluorescence upon binding to DNA. A flask of Jurkat cells were induced with staurosporine (1 μM) for apoptosis. Aliquots of the induced Jurkat cells were taken at 1 hour, 2.5 hours and 5 hours after induction, respectively, and aliquots of uninduced Jurkat cells, which served as negative controls, were taken at the same times. Substrate No. 19 was added to each Jurkat cell culture medium to give a final concentration of 10 μM and each resulting medium was allowed to incubate for 15 minutes before undergoing flow cytometry analysis using the FL1 channel for green fluorescence. […] For example, a stimulation time of 1 hour, 2.5 hours and 5 hours was associated with a 10%, 80% and 97% caspase-3-positive cell identification, respectively, as may be seen in the representations B, C and D of FIG. 4, respectively. One hour of staurosporine induction was required for Substrate No. 19 to reliably detect the presence of caspase-3-positive cells. Detection of intracellular caspase-3 activity via Substrate No. 19 is possible after only 15 minutes of incubation time, without necessitating cell destruction. Thus, it may be possible to continuously monitor enzymatic activity over more or less the entire course of cellular life via an enzyme substrate such as Substrate No. 19.

[2] = target: T1, caspase-3 activity in Jurkat cells; test: Detection of caspase-3 activity in live cells by fluorescence microscopy; format: cell-based; details: Jurkat cells induced 4 hours with staurosporine (1 μM), substrate 10 μM for 15 minutes, confocal microscope, FIG. 5
Method: (§1) Substrate No. 19 (10 μM) was incubated for 15 minutes with Jurkat cells that had been induced for 4 hours with staurosporine (1 μM). Separately, Substrate No. 19 (10 μM) was incubated for 15 minutes with uninduced Jurkat cells, which served as a negative control. For each of the cell cultures, cells (1×10^5) were taken, pelleted and then resuspended in Annexin V binding buffer (100 μL; HEPES buffer (10 mM, pH 7.4), NaCl (140 mM) and CaCl2 (2.5 mM)) in a tube, whereupon Texas Red-conjugated Annexin V (5 μL, 50 μg/mL) (Biotium Inc., Hayward, Calif.) was added to each tube. After 15 minutes of incubation at room temperature, a cell culture (5 μL) of the induced cells or the uninduced cells was spotted onto a slide, which was then mounted with a coverslip and sealed with nail polish. The cells were examined with a 510 Meta UV/Vis confocal microscope. […] The green fluorescence is indicative of nuclear DNA staining by the nucleic acid dye that is formed from substrate cleavage via caspase-3. The red fluorescence is indicative of the staining of phosphatidylserine (PS) by the Texas Red-conjugated Annexin V, a fluorescent stain that is used to identify apoptotic cells.

caspase-3 = target: T2, caspase-3 (Homo sapiens, UniProt P42574); test: In vitro enzymatic assay for nucleic acid dye-based substrates for caspase-3; format: biochemical; details: 10 μM, caspase-3 0.1 unit/mL, salmon sperm dsDNA 3.3 μg/mL, excitation 485 nm, emission 530 nm, FIG. 3
T2 construct: purchased Biovision Inc., Mountain View, Calif
T2 sequence (P42574 29-175 limits assumed): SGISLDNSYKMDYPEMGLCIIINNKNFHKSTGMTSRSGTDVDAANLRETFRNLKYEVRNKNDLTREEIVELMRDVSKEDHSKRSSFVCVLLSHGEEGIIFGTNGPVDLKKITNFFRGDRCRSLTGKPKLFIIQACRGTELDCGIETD
T2 sequence (P42574 176-277 limits assumed): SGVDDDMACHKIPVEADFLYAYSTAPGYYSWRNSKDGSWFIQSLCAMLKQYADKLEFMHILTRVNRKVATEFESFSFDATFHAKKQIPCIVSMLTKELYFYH
Method: In this example, nucleic acid dye-based caspase-3 substrates were assayed in the presence of caspase-3 and dsDNA by monitoring the fluorescence increase. In one example, Substrate No. 19 (10 μM) was incubated with caspase-3 (0.1 unit/mL) (Biovision Inc., Mountain View, Calif.) and salmon sperm dsDNA (3.3 μg/mL) in a caspase assay buffer (100 μL; HEPES buffer (50 mM, pH 7.4), NaCl (100 mM), EDTA (1 mM), CHAPS (0.1%), DTT (10 mM), PMSF (1 mM) and glycerol (10%)) in a well of a black 96-well plate. The plate was then placed in a SpectraMax Germini XS fluorescence microplate reader (Molecular Devices Corp., Sunnyvale, Calif.), with the excitation wavelength set at 485 nm and emission collection wavelength set at 530 nm, to measure the fluorescence signal over time, as shown in FIG. 3.

phosphatidylserine (PS) = test: Texas Red-Annexin V staining of apoptotic Jurkat cells by confocal microscopy; format: cell-based; details: Jurkat cells induced 4 hours with staurosporine (1 μM), 15 minutes of incubation at room temperature, confocal microscope, FIG. 5
Method: as §1

Molecule: C[n+]1c(C=C2C=CN(CCCCCC(=O)NCCN)c3ccccc32)sc2ccccc21 [Compound No. 7]
fluorescence response to dsDNA concentration (DNA titration) (calf thymus dsDNA): fluorescently responsive to the amount of DNA present

Molecule: CC(=O)NCCCCC(NC(=O)OC(C)(C)C)C(=O)NCCNC(=O)CCCCCN1C=C/C(=C\c2sc3ccccc3[n+]2C)c2ccccc21.[I-] (stereo not drawn) [Compound No. 21]
fluorescence response to dsDNA concentration (DNA titration) (calf thymus dsDNA): relatively insensitive to the presence of DNA

Molecule: C[n+]1c(/C=C2\C=CN(CCCCCC(=O)NCCNC(=O)C(CCCCN)NC(=O)OC(C)(C)C)c3ccccc32)sc2ccccc21.[I-] (stereo not drawn) [Compound No. 23]
fluorescence response to dsDNA concentration (DNA titration) (calf thymus dsDNA): fluorescently responsive to the amount of DNA present

Molecule: C[n+]1c(/C=C/C=C2\C=CN(CCCC(=O)NCCN)c3ccccc32)sc2ccccc21 [Compound No. 24]
fluorescence response to dsDNA concentration (DNA titration) (calf thymus dsDNA): fluorescently responsive to the amount of DNA present
fluorescence emission in the presence of DNA, control versus substrate (calf thymus DNA): substantially more fluorescent than Substrate No. 20

caspase-3-positive cell identification ([1]; staurosporine (1 μM) stimulation 1 hour): 10%
caspase-3-positive cell identification ([1]; staurosporine (1 μM) stimulation 2.5 hours): 80%
caspase-3-positive cell identification ([1]; staurosporine (1 μM) stimulation 5 hours): 97%
staurosporine induction required to reliably detect caspase-3-positive cells ([1]; live Jurkat cells, staurosporine 1 μM, substrate 10 μM): One
incubation time after which detection of intracellular caspase-3 activity is possible ([1]; live Jurkat cells, without cell destruction): 15 min
fluorescent staining pattern of cells [2]: green fluorescence in cellular nuclei
fluorescence increase over time with caspase-3 and dsDNA (caspase-3): substrate for caspase-3 enzyme
Molecule: CC(=O)N[C@@H](CC(=O)O)C(=O)N[C@@H](CCC(=O)O)C(=O)N[C@H](C(=O)N[C@@H](CC(=O)O)C(=O)NCCNC(=O)CCCCCN1C=CC(=Cc2sc3ccccc3[n+]2C)c2ccccc21)C(C)C [Substrate No. 19]
fluorescence response to dsDNA concentration (DNA titration) (calf thymus dsDNA): relatively insensitive to the presence of DNA

Molecule: CC(=O)N[C@H](CC(=O)O)C(=O)N[C@H](CCC(=O)O)C(=O)N[C@@H](C(=O)N[C@H](CC(=O)O)C(=O)NCCNC(=O)CCCN1C=CC(=CC=Cc2sc3ccccc3[n+]2C)c2ccccc21)C(C)C [Substrate No. 20]
fluorescence response to dsDNA concentration (DNA titration) (calf thymus dsDNA): relatively insensitive to the presence of DNA

B1: Texas Red-conjugated Annexin V: fluorescent stain (Biotium Inc.) that is used to identify apoptotic cells by staining phosphatidylserine (conjugate, UniProt P08758 2-320, looked up)
Annexin A5: AQVLRGTVTDFPGFDERADAETLRKAMKGLGTDEESILTLLTSRSNAQRQEISAAFKTLFGRDLLDDLKSELTGKFEKLIVALMKPSRLYDAYELKHALKGAGTNEKVLTEIIASRTPEELRAIKQVYEEEYGSSLEDDVVGDTSGYYQRMLVVLLQANRDPDAGIDEAQVEQDAQALFQAGELKWGTDEEKFITIFGTRSVSHLRKVFDKYMTISGFQIEETIDRETSGNLEQLLLAVVKSIRSIPAYLAETLYYAMKGAGTDDHTLIRVMVSRSEIDLFNIRKEFRKNFATSLYSMIKGDTSGDYKKALLLLCGEDD
modifications: Texas Red dye
notes: fluorescent stain (Biotium Inc.) that is used to identify apoptotic cells by staining phosphatidylserine
fluorescent staining pattern of cells (phosphatidylserine (PS)): red fluorescence on a cytoplasmic membrane
